Several values for one entry are separate records, joined by “and”; a condition that tells them apart may be missing. Identical values can stand only once.
Tested on: BAX
Test: BAX expression assay (Western blot)
Type: cell-based, human
Details: HepG2, 1.13 µM, 24 h
Experimental: The expression of BAX and Bcl-2 were evaluated in the HepG2 cells after treatment with 1.13 µM of compound 17a for 24 h. The Western blotting technique was utilized to determine the levels of Bax and Bcl-2 proteins and estimate the Bax/Bcl-2 ratio.
The expression of apoptotic BAX and antiapoptotic Bcl-2 proteins in the liver HepG2 cells treated with 1.13 μM of 17a was determined using Western blot analysis, as described in the Supplementary Materials. […]
Casp3 F: 5ʹ‐ […] ‐3ʹ
Casp3 R: 5ʹ‐ […] ‐3ʹ […]
β‐actin F: 5ʹ‐[…]‐3ʹ […]
β‐actin R: 5ʹ‐[…]‐3ʹ […]
4.2.6. Bax and Bcl‐2 expression assay
The expression of BAX and Bcl‐2 proteins were determined using Western blot anal‐ ysis. In brief, HepG2 cells were treated with control or with the synthesized compound 17a (1.13 μM). Then cells were lysed in 250 μL precold lysis buffer (pH 7.4: Tris‐Base [10 mM], NaCl [100 mM], ethylenediaminetetraacetic acid [EDTA, 25 mM], ethylene glycol bis (2‐ aminoethyl) tetraacetic acid [EGTA, 25 mM], 1% [v/v] NP‐40, and 1% [v/v] Triton X‐100) supplemented with 1:350 protease:phosphatase inhibitors cocktail (Sigma). The cells were immediately frozen at −20°C for 1.5 hours for further analysis, collected by cell scraper, sonicated 3 × 10 seconds, and centrifuged (13000 rpm, 15 minutes). Total protein concentrations in the supernatant were colorimetrically determined using the Pierce 660 nm Protein Assay method (Thermo Fisher Scientific, Rockford, IL), with BSA as the stand‐ ard. Equal amounts of protein (25 μg) samples were mixed with SDS‐loading buffer (pH 6.8: Tris‐HCl [700 mM], dithiothreitol [DTT, 600 mM], sodium dodecyl sulfate [SDS, 12%], glycerol [60%], and bromophenol blue [0.012%]), denatured by boiling at 95°C for 10 minutes, allowed to cool on ice for 15 minutes, vigorously vortexed for 30 seconds, loaded into SDS‐polyacrylamide gel and separated by an electrophoresis unit (Cleaver Scientific Ltd, UK), and transferred onto polyvinylidene fluoride membranes (Bio‐Rad) for 35 minutes using a Trans‐Blot SD semi‐dry transfer cell (Bio‐Rad) at 250 mA and 22 V. Mem‐ branes were blocked with 5% (w/v) blotting grade dry milk (Bio‐Rad) in Tris‐buffered saline/Tween‐20 (TBS‐T) (pH 7.5: Tris‐base [20 mM], NaCl [150 mM], and 0.05% [v/v] Tween‐ 20) while shaken for 1.5 hour at RT, and then incubated with the corresponding primary antibody against BAX (Biovision, USA) and Bcl‐2 (Bioimaging, system, syngene, UK) for 9‐10 hours at 4°C in a humidified chamber. […] Means of the detected blot intensities were then quantified, analyzed by the combined Bio‐Rad Image Lab soft‐ ware and their corresponding background subtracted, with normalization to the corre‐ sponding bands density of β‐actin as the sampling loading control. […]

## O=C1Nc2ccccc2C1=Nc1ccc(C(=O)NNC(=S)Nc2ccccc2)cc1 [Compound 17a, 2-(4-((2-Oxoindolin-3-ylidene)amino)benzoyl)-N-phenylhydrazinecarbothioamide]
  increase of BAX expression versus control: 2.69 fold and 2.7 fold
  increase of BAX/Bcl-2 ratio versus control: 5 fold
Control 0.175
  Protein Expression (Normalized to β-Actin) BAX: 0.472
Control 0.41
  BAX/Bcl-2 Ratio: 2.06
